{"source": "patent US7939518B2", "about": "“Method of treating post-surgical acute pain” (Aaipharma Inc., priority 2008, dated 2011)", "origin": "cited, not measured here", "tested_on": "cyclo-oxygenase", "data": [{"compound": "O=C(O)Cc1ccccc1Nc1c(Cl)cccc1Cl", "note": "[Diclofenac]", "values": [{"measurement": "Concentrations at which cyclo-oxygenase is inhibited", "result": "micromolar concentrations"}]}]}
